The assay concerns E. coli strain W3110. In words: Synergy assays: Biolog chemical sensitivity panels with Group IB metal, coefficient of drug interaction (CDI) from relative growth. In kind it is cell-based. The note with it: for CDI (coefficient of drug interaction), copper mixed with biocide: Copper (mM) section.
[1] abbreviates: 1st of 3 copper concentrations (value not shown), 1st of four biocide concentrations.
[2] abbreviates: 1st of 3 copper concentrations (value not shown), 2nd of four biocide concentrations.
[3] abbreviates: 1st of 3 copper concentrations (value not shown), 3rd of four biocide concentrations.
Setting [4] is: 1st of 3 copper concentrations (value not shown), 4th of four biocide concentrations.
Setting [5] is: 2nd of 3 copper concentrations (value not shown), 1st of four biocide concentrations.
The mark [6] stands for this setting: 2nd of 3 copper concentrations (value not shown), 2nd of four biocide concentrations.
Setting [7] is: 2nd of 3 copper concentrations (value not shown), 3rd of four biocide concentrations.
The mark [8] stands for this setting: 2nd of 3 copper concentrations (value not shown), 4th of four biocide concentrations.
Setting [9] is: 3rd of 3 copper concentrations (value not shown), 2nd of four biocide concentrations.
[10] abbreviates: 3rd of 3 copper concentrations (value not shown), 3rd of four biocide concentrations.
The mark [11] stands for this setting: 3rd of 3 copper concentrations (value not shown), 4th of four biocide concentrations.
Where [12] appears, read: Gold section of Table 5, first of three gold concentrations (μM, value not given), biocide concentration 1 of 4.
[13] abbreviates: Gold section of Table 5, first of three gold concentrations (μM, value not given), biocide concentration 2 of 4.
The mark [14] stands for this setting: Gold section of Table 5, first of three gold concentrations (μM, value not given), biocide concentration 3 of 4.
The mark [15] stands for this setting: Gold section of Table 5, first of three gold concentrations (μM, value not given), biocide concentration 4 of 4.
Setting [16] is: Gold section of Table 5, second of three gold concentrations (μM, value not given), biocide concentration 1 of 4.
Where [17] appears, read: Gold section of Table 5, second of three gold concentrations (μM, value not given), biocide concentration 2 of 4.
Where [18] appears, read: Gold section of Table 5, second of three gold concentrations (μM, value not given), biocide concentration 3 of 4.
Setting [19] is: Gold section of Table 5, second of three gold concentrations (μM, value not given), biocide concentration 4 of 4.
[20] abbreviates: Gold section of Table 5, third of three gold concentrations (μM, value not given), biocide concentration 1 of 4.
Where [21] appears, read: Gold section of Table 5, third of three gold concentrations (μM, value not given), biocide concentration 2 of 4.
Where [22] appears, read: Gold section of Table 5, third of three gold concentrations (μM, value not given), biocide concentration 3 of 4.
[23] abbreviates: Gold section of Table 5, third of three gold concentrations (μM, value not given), biocide concentration 4 of 4.
Where [24] appears, read: Silver 0.5 μM, 2nd of four biocide concentrations, E. coli.
[25] abbreviates: Silver 0.5 μM, 4th of four biocide concentrations, E. coli.
The mark [26] stands for this setting: Silver 1.0 μM, 2nd of four biocide concentrations, E. coli.
Setting [27] is: Silver 1.0 μM, 4th of four biocide concentrations, E. coli.
Setting [28] is: Silver 5.0 μM, 4th of four biocide concentrations, E. coli.
The mark [29] stands for this setting: […], biocide concentration 4 of 4, E. coli.

These results are taken from patent publication US11382328B2, “Rapid drug discovery methods for pathogen inactivation” (priority 2019, dated 2022).

“And” between values parts separate entries of the source, which are not always exact repeats. Equal values may be shown once.

As to poly-L-lysine, the “CDI (coefficient of drug interaction), copper mixed with biocide” value (“CDI … with biocide” for short) is recorded as 1.15 under setting [1]; 0.95 under setting [2]; “Tox” under setting [3]; “Tox” under setting [4]; 1.03 under setting [5]; 0.96 under setting [6]. Moreover, the “CDI … with biocide” value under setting [7] is listed as “Tox”; the “CDI … with biocide” value under setting [8] was “Tox”; the “CDI … with biocide” value under setting [9] amounted to 0.59; the “CDI … with biocide” value under setting [10] was “Tox”; the “CDI … with biocide” value under setting [11] is “Tox”. For the same compound, the “CDI (coefficient of drug interaction)” value is recorded as 1.07 under setting [12]; 0.98 under setting [13]; “Tox” under setting [14]; “Tox” under setting [15]; 1.08 under setting [16]; 1.06 under setting [17]. The “CDI (coefficient of drug interaction)” value is reported as “Tox” under setting [18]; “Tox” under setting [19]; 0.93 under setting [20]; 0.88 under setting [21]; “Tox” under setting [22]; “Tox” under setting [23]. Moreover, the “CDI (coefficient of drug interaction), silver + biocide” value (“CDI … silver + biocide” for short) reads like this: (Silver 0.5 μM, 1st of four biocide concentrations, E. coli) 0.92; under setting [24], 0.96; (Silver 0.5 μM, 3rd of four biocide concentrations, E. coli) “Tox”; under setting [25], “Tox”; (Silver 1.0 μM, 1st of four biocide concentrations, E. coli) 0.88; under setting [26], 0.88. The “CDI … silver + biocide” value is reported as “Tox” (Silver 1.0 μM, 3rd of four biocide concentrations, E. coli); “Tox” under setting [27]; “Tox” (Silver 5.0 μM, 3rd of four biocide concentrations, E. coli); “Tox” under setting [28].

Regarding `N[C@@H](CC(=O)NO)C(=O)O` [L-Aspartic-β-hydroxamate], the “CDI (coefficient of drug interaction), gold + biocide” value is 1.03 and 1.06 and 1.05 and 1.11 and 1.19 and 1.02 and 1.01.

For the compound `NC(=O)NN=Cc1ccc([N+](=O)[O-])o1` [5-Nitro-2-furaldehyde semicarbazone], the “CDI (coefficient of drug interaction)” value is “Tox” ([…], biocide concentration 3 of 4, E. coli) and “Tox” under setting [29].

Take `O=c1cc(O)c2ccccc2o1` [4-Hydroxy-coumarin]: the “CDI … with biocide” value is, setting by setting: under setting [4], “Tox”; under setting [11], “Tox”. The “CDI (coefficient of drug interaction)” value reads like this: (Gold 5 μM, biocide concentration 4 of 4, E. coli) “Tox”; (Gold 25 μM, biocide concentration 4 of 4, E. coli) “Tox”; under setting [29], “Tox”. Moreover, the “CDI … silver + biocide” value by setting is: under setting [25], “Tox”; under setting [27], “Tox”; under setting [28], “Tox”.

As for `OC(CCN1CCCCC1)(c1ccccc1)c1ccccc1` [pridinol], the “CDI … with biocide” value under setting [4] is listed as “Tox”; the “CDI … with biocide” value under setting [8] was “Tox”; the “CDI … with biocide” value under setting [11] was “Tox”. Also, the “CDI (coefficient of drug interaction)” value under setting [15] is reported as “Tox”; the “CDI (coefficient of drug interaction)” value under setting [18] is recorded as “Tox”; the “CDI (coefficient of drug interaction)” value under setting [19] is on record as “Tox”; the “CDI (coefficient of drug interaction)” value under setting [22] is reported as “Tox”; the “CDI (coefficient of drug interaction)” value under setting [23] is listed as “Tox”. The “CDI … silver + biocide” value is, setting by setting: under setting [24], “Tox”; under setting [25], “Tox”; under setting [26], “Tox”; under setting [27], “Tox”; (Silver 5.0 μM, 2nd of four biocide concentrations, E. coli) “Tox”; under setting [28], “Tox”.

As to `C[n+]1ccc(-c2cc[n+](C)cc2)cc1` [methyl viologen], the “CDI … with biocide” value reads like this: under setting [1], 0.85; under setting [2], 0.99; under setting [3], “Tox”; under setting [4], “Tox”; under setting [5], 0.63; under setting [6], 0.77. For the same compound, the “CDI … with biocide” value is recorded as “Tox” under setting [7]; “Tox” under setting [8]; 0.61 (3rd of 3 copper concentrations (value not shown), 1st of four biocide concentrations); 0.64 under setting [9]; “Tox” under setting [10]; “Tox” under setting [11]. In addition, the “CDI (coefficient of drug interaction)” value reads like this: under setting [12], 0.99; under setting [13], 1.07; under setting [14], 0.82; under setting [15], 0.08; under setting [16], 1.01; under setting [17], 1.01. The “CDI (coefficient of drug interaction)” value is 0.66 under setting [18]; 0.78 under setting [19]; 1.04 under setting [20]; 0.98 under setting [21]; 0.50 under setting [22]; 0.28 under setting [23]. Further, the CDI is listed as 0.89 (Silver 0.5 μM, biocide concentration 1 of 4); 0.73 (Silver 0.5 μM, biocide concentration 2 of 4); “Tox” (Silver 0.5 μM, biocide concentration 3 of 4); “Tox” (Silver 0.5 μM, biocide concentration 4 of 4); 0.48 (Silver 1.0 μM, biocide concentration 1 of 4); 0.20 (Silver 1.0 μM, biocide concentration 2 of 4). The CDI result (Silver 1.0 μM, biocide concentration 3 of 4) was “Tox”; the CDI entry (Silver 1.0 μM, biocide concentration 4 of 4) was “Tox”; the CDI (Silver 5.0 μM, biocide concentration 1 of 4) was found to be 0.07; the CDI (Silver 5.0 μM, biocide concentration 2 of 4) turned out to be 0.01; the CDI result (Silver 5.0 μM, biocide concentration 3 of 4) was “Tox”; the CDI result (Silver 5.0 μM, biocide concentration 4 of 4) is on record as “Tox”.

`Nc1c2ccccc2nc2ccccc12` [9-aminoacridine]: the “CDI … with biocide” value under setting [8] is on record as “Tox”. Besides, the “CDI … silver + biocide” value by setting is: under setting [25], “Tox”; under setting [27], “Tox”; under setting [28], “Tox”.
